Measurements reported in patent US20130065897A1, “COMPOUNDS, PREPARATION AND USES THEREOF” (PETER MACCALLUM CANCER INSTITUTE, priority 2009, published 2013).
Like-named read-outs stand apart in the source and are kept apart here.

Legend:
Format in all cases: cell-based
[1] = system: KHYG-1 NK cells; experiment: Toxicity to KHYG-1 NK cells (trypan blue viability); conditions: viable cells as percentage of total (% viability), 18 to 24 hours
Experimental: Toxicity to KHYG-1 NK Cells
KHYG-1 cells were washed and resuspended in RPMI+0.1% BSA at 4×10^5 cells/ml and 50 μl of KHYG-1 cells were dispensed to each well of a 96-well V-bottom plate. Test compounds were added to KHYG-1 cells at a concentration of 20 μM and incubated at RT for 20 minutes. 100 μL of RPMI 0.1% BSA was added and the cells were incubated for 4 hours at 37° C. then washed ×3 in RPMI+0.1% BSA. Cells were then resuspended in 200 μl of complete medium and incubated for 18 to 24 hours at 37° C. Trypan blue was added to each well and viable (clear) cells counted as a percentage of total (clear+blue) cell number (% viability).

[2] = system: KHYG-1 NK cell-mediated lysis of K562 cells; experiment: Inhibition of KHYG-1 NK cell-mediated lysis of K562 cells (51Cr release); conditions: K562 target cells, Effector:Target 2:1, 4 hours 37° C.
Experimental: Inhibition of KHYG-1 NK Cell-Mediated lysis of K562 Cells
KHYG-1 cells were washed and resuspended in RPMI+0.1% BSA at 4×10^5 cells/ml and 50 μl of KHYG-1 cells were dispensed to each well of a 96-well V-bottom, plate. Test compounds were added to KHYG-1 cells at various concentrations up to 20 μM and incubated at RT for 20 minutes. 1×10^6 K562 target cells were labelled with 75 μCi ^51Cr in 200 μl RPMI for 90 mins at 37° C., cells were washed as described above and resuspended in 5 ml RPMI+0.1% BSA. 50 μl of ^51Cr labelled K562 leukemia target cells were added to each well of the KHYG-1 plate (Effector:Target 2:1) and incubated at 37° C. for 4 hours. ^51Cr release was assayed using a Skatron Harvesting Press and radioactivity estimated on a Wallac Wizard 1470 Automatic Gamma counter (Turku, Finland). The percentage of specific cytotoxicity was calculated by the formula: […]
and expressed as the mean of triplicate assays +/−standard error of the mean.

[3] = target: recombinant perforin (UniProt P10820)
Sequence of recombinant perforin (P10820 whole entry): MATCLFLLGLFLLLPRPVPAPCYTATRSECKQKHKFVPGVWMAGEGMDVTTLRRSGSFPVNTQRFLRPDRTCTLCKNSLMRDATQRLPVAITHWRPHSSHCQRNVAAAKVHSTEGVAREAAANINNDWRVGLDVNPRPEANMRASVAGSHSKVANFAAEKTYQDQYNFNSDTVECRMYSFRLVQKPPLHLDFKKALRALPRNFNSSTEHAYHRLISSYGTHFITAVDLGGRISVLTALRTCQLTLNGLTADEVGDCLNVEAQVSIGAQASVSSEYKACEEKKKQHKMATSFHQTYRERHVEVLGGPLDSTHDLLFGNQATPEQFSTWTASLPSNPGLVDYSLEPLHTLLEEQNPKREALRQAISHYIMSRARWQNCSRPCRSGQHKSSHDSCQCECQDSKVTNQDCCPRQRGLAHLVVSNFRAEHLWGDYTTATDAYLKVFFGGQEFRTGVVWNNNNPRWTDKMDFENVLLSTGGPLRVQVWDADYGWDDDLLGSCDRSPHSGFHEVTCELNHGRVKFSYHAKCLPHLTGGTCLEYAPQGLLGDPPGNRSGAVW
Experimental: Inhibition of Perforin-Mediated Lysis of Jurkat Cells
The ability of the compounds to inhibit the lysis of nucleated (Jurkat T lymphoma) cells in the presence of 0.1% BSA, as measured by release of ^51Cr was measured. Jurkat target cells were labelled by incubation in medium with 100 μCi ^51Cr for one hour. The cells were then washed three times to remove unincorporated isotope and re-suspended at 1×10^5 cells per mL in RPMI buffer supplemented with 0.1% BSA. […] The supernatant was collected and assessed for its radioactive content on a gamma counter (Wallac Wizard 1470 automatic gamma counter). Each data point was performed in triplicate and an IC50 was calculated from the range of concentrations described to above.

[4] = read-out: Jurkat IC50; recombinant perforin pre-incubated 30 min with compound; 51Cr-labelled Jurkat cells, 0.1% BSA, 37° C. 4 hours

| Compound | percent viable KHYG-1 cells (trypan blue) at 20 μM [1] [%] | inhibition at 20 µM [2] [%] | IC50 [3, 4] [µM] | Inhibition of KHYG-1 at 20 μM [2] [%] | IC50 ([3]; recombinant perforin pre-incubated 30 min with compound; 51Cr-labelled Jurkat cells, 0.1% BSA, 37° C. 4 hours; read-out: Jurkat IC50) [µM] |
| --- | --- | --- | --- | --- | --- |
| O=C1NC(=S)N/C1=C/c1ccc(-c2ccc3c(c2)COC3=O)s1 [Cmpd 2, (E,Z)-5-((5-(1-Oxo-1,3-dihydroisobenzofuran-5-yl)thiophen-2-yl)methylene)-2-thioxoimidazolidin-4-one] | 83 | 52 | 0.76 |  |  |
| O=C1NC(=S)N/C1=C/c1ccc2cc(-c3ccc4c(c3)COC4=O)ccc2n1 [Cmpd 14, (E,Z)-5-((6-(1-Oxo-1,3-dihydroisobenzofuran-5-yl)quinolin-2-yl)methylene)-2-thioxoimidazolidin-4-one] | 81 |  |  | 56 | 0.47 |
| NC(=O)c1ccc(-c2ccc(/C=C3/NC(=S)NC3=O)s2)cc1 [Cmpd 16, (E,Z)-4-(5-((5-oxo-2-thioxoimidazolidin-4-ylidene)methyl)thiophen-2-yl)benzamide] | 52 | 80 | 1.56 |  |  |
| NC(=O)c1cccc(-c2ccc(/C=C3/NC(=S)NC3=O)s2)c1 [Cmpd 17, (E,Z)-3-(5-((5-Oxo-2-thioxoimidazolidin-4-ylidene)methyl)thiophen-2-yl)benzamide] | 100 | 35 | 0.79 |  |  |
| CC(=O)OCc1ccc(-c2ccc(/C=C3/NC(=S)NC3=O)s2)cc1 [Cmpd 18, (E,Z)-4-(5-((5-Oxo-2-thioxoimidazolidin-4-ylidene)methyl)thiophen-2-yl)benzyl acetate] | 100 | 98 | 3.04 |  |  |
| COC(=O)c1ccc(-c2ccc(/C=C3/NC(=S)NC3=O)s2)cc1 [Cmpd 19, (E,Z)-Methyl 4-(5-((5-oxo-2-thioxoimidazolidin-4-ylidene)methyl)thiophen-2-yl)benzoate] | 95 | 30 | 1.62 |  |  |
| CC(=O)c1ccc(-c2ccc(/C=C3/NC(=S)NC3=O)s2)cc1 [Cmpd 20, (E,Z)-5-((5-(4-Acetylphenyl)thiophen-2-yl)methylene)-2-thioxoimidazolidin-4-one] | 100 | 90 | 1.67 |  |  |
| O=C1NC(=S)N/C1=C/c1ccc(-c2cccc(Cl)c2)s1 [Cmpd 23, (E,Z)-5-((5-(3-Chlorophenyl)thiophen-2-yl)methylene)-2-thioxoimidazolidin-4-one] | 55 | 92 | 7.19 |  |  |
| O=C1NC(=S)N/C1=C/c1ccc(-c2ccc(Cl)cc2)s1 [Cmpd 24, (E,Z)-5-((5-(4-Chlorophenyl)thiophen-2-yl)methylene)-2-thioxoimidazolidin-4-one] | 89 | 59 | 5.22 |  |  |
| CSc1ccc(-c2ccc(/C=C3/NC(=S)NC3=O)s2)cc1 [Cmpd 27] | 83 | 43 | 1.15 |  |  |
| O=C1NC(=S)N/C1=C/c1ccc(-c2ccc(Br)cc2)s1 [Cmpd 32, (E,Z)-5-((5-(4-Bromophenyl)thiophen-2-yl)methylene)-2-thioxoimidazolidin-4-one] | 83 | 66 | 1.69 |  |  |
| N#Cc1cccc(-c2ccc(/C=C3/NC(=S)NC3=O)s2)c1 [Cmpd 34, (E,Z)-3-(5-((5-Oxo-2-thioxoimidazolidin-4-ylidene)methyl)thiophen-2-yl)benzonitrile] | 99 | 97 | 9.68 |  |  |
| O=C1NC(=S)N/C1=C/c1ccc(-c2ccc(O)cc2)s1 [Cmpd 35, (E,Z)-5-((5-(4-Hydroxyphenyl)thiophen-2-yl)methylene)-2-thioxoimidazolidin-4-one] | 93 | 90 | 7.72 |  |  |
| CNC(=O)c1ccc(-c2ccc(/C=C3/NC(=S)NC3=O)s2)cc1 [Cmpd 38, (E,Z)-N-Methyl-4-(5-((5-oxo-2-thioxoimidazolidin-4-ylidene)methyl)thiophen-2-yl)benzamide] | 97 | 49 | 4.53 |  |  |
| CN(C)C(=O)c1ccc(-c2ccc(/C=C3/NC(=S)NC3=O)s2)cc1 [Cmpd 39, (E,Z)-N,N-Dimethyl-4-(5-((5-oxo-2-thioxoimidazolidin-4-ylidene)methyl)thiophen-2-yl)benzamide] | 95 | 89 | 6.93 |  |  |
| O=C1NC(=S)N/C1=C/c1ccc(-c2ccc(C(=O)NCC(O)CO)cc2)s1 (centres unmarked) [Cmpd 40, (E,Z)-N-(2,3-Dihydroxypropyl)-4-(5-((5-oxo-2-thioxoimidazolidin-4-ylidene)methyl)thiophen-2-yl)benzamide] | 82 | 47 | 2.44 |  |  |
| CC(O)CNC(=O)c1ccc(-c2ccc(/C=C3/NC(=S)NC3=O)s2)cc1 (centres unmarked) [Cmpd 41, (E,Z)-N-(2-Hydroxypropyl)-4-(5-((5-oxo-2-thioxoimidazolidin-4-ylidene)methyl)thiophen-2-yl)benzamide] | 91 | 60 | 6.5 |  |  |
| O=C1NC(=S)N/C1=C/c1ccc(-c2ccc(C(=O)NCCCN3CCOCC3)cc2)s1 [Cmpd 43, (E,Z)-N-(3-Morpholinopropyl)-4-(5-((5-oxo-2-thioxoimidazolidin-4-ylidene)methyl)thiophen-2-yl)benzamide] | 89 | 81 | 8.13 |  |  |
| O=C1NC(=S)N/C1=C/c1ccc(-c2ccc3c(c2)CNC3=O)s1 [Cmpd 46, (E,Z)-5-(5-((5-Oxo-2-thioxoimidazolidin-4-ylidene)methyl)thiophen-2-yl)isoindolin-1-one] | 98 | 70 | 2.55 |  |  |
| O=C1NC(=O)/C(=C\c2ccc(-c3ccc4c(c3)CNC4=O)s2)N1 [Cmpd 47, (E,Z)-5-((5-(1-Oxoisoindolin-5-yl)thiophen-2-yl)methylene)imidazolidine-2,4-dione] | 92 | 73 | 0.4 |  |  |
| O=C1NC(=S)N/C1=C\c1ccc(-c2ccc3c(c2)CNC3=O)cn1 [Cmpd 51, (E,Z)-5-(6((5-Oxo-2-thioxoimidazolidin-4-ylidene)methyl)pyridin-3-yl)isoindolin-1-one] | 97 | 19 | 0.63 |  |  |
| CC(C)N1Cc2cc(-c3ccc(/C=C4/NC(=S)NC4=O)s3)ccc2C1=O [Cmpd 52, (E,Z)-2-Isopropyl-5-(5-((5-oxo-2-thioxoimidazolidin-4-ylidene)methyl)thiophen-2-yl)isoindolin-1-one] | 92 | 77 | 4.42 |  |  |
| CN1Cc2cc(-c3ccc(/C=C4/NC(=S)NC4=O)s3)ccc2C1=O [Cmpd 61, (E,Z)-2-Methyl-5-(5-((5-oxo-2-thioxoimidazolidin-4-ylidene)methyl)thiophen-2-yl)isoindolin-1-one] | 76 | 83 |  |  |  |
| CCN1Cc2cc(-c3ccc(/C=C4/NC(=S)NC4=O)s3)ccc2C1=O [Cmpd 62, (E,Z)-2-Ethyl-5-(5-((5-oxo-2-thioxoimidazolidin-4-ylidene)methyl)thiophen-2-yl)isoindolin-1-one] | 79 | 84 | 0.6 |  |  |
| CCCN1Cc2cc(-c3ccc(/C=C4/NC(=S)NC4=O)s3)ccc2C1=O [Cmpd 63, (E,Z)-5-(5-((5-Oxo-2-thioxoimidazolidin-4-ylidene)methyl)thiophen-2-yl)-2-propylisoindolin-1-one] | 94 | 95 | 1.52 |  |  |
| CCCCN1Cc2cc(-c3ccc(/C=C4/NC(=S)NC4=O)s3)ccc2C1=O [Cmpd 64, (E,Z)-2-Butyl-5-(5-((5-oxo-2-thioxoimidazolidin-4-ylidene)methyl)thiophen-2-yl)isoindolin-1-one] | 94 | 96 | 0.99 |  |  |
